Literature values, collected in US20200229407A1 (priority 2017, published 2020).

Legend:
[1] = tested on: prion replication in neuroblastoma cells
scrapie agent = settings: mouse, in vivo

Compound | cell-surface PrP (cell-surface PrP) | prion replication [1] | incubation period (scrapie agent)
COc1ccc(CCN2CCC(Nc3nc4ccccc4n3Cc3ccc(F)cc3)CC2)cc1 [astemizole] | reducing cell-surface PrP | inhibiting prion replication | –
C=CC[C@@H]1/C=C(\C)C[C@H](C)C[C@H](OC)[C@H]2O[C@@](O)(C(=O)C(=O)N3CCCC[C@H]3C(=O)O[C@H](/C(C)=C/[C@@H]3CC[C@@H](O)[C@H](OC)C3)[C@H](C)[C@@H](O)CC1=O)[C@H](C)C[C@@H]2OC [tacrolimus] | reducing cell-surface PrP | inhibiting prion replication | –
pentosan polysulphate [PPS] | – | – | prolonged the incubation period
